In patent publication US20080171760A1, “SPIROPIPERIDINE GLYCINAMIDE DERIVATIVES” (priority 2007, published 2008):

Biological target: T1, human V1a receptor (Homo sapiens, UniProt P37288)
T1 construct: expressed in transfected cells; host or cells: HEK293 cells, transiently transfected; cell membranes
Assay: human V1a receptor binding study (3H-Vasopressin, SPA beads)
Conditions: membranes of HEK293 cells transiently transfected with human V1a receptor, Ki calculated using the Cheng-Prussoff equation, read-out: pKi hV1a (converted)
Protocol: The human V1a receptor was cloned by RT-PCR from total human liver RNA. The coding sequence was subcloned in an expression vector after sequencing to confirm the identity of the amplified sequence. […] Cell membranes were prepared from HEK293 cells transiently transfected with the expression vector and grown in 20 liter fermenters with the following protocol.
50 g of cells were resuspended in 30 ml freshly prepared ice cold Lysis buffer (50 mM HEPES, 1 mM EDTA, 10 mM MgCl2 adjusted to pH=7.4+complete cocktail of protease inhibitor (Roche Diagnostics)), homogenized with Polytron for 1 min, and sonicated on ice for 2×2 minutes at 80% intensity (Vibracell sonicator). The preparation was centrifuged 20 min at 500 g at 4° C., the pellet was discarded and the supernatant centrifuged 1 hour at 43,000 g at 4° C. (19,000 rpm). The pellet was resuspended in 12.5 ml Lysis buffer+12.5 ml Sucrose 20% and homogenized using a Polytron for 1-2 min. The protein concentration was determined by the Bradford method and aliquots are stored at −80° C. until use. For binding studies 60 mg Yttrium silicate SPA beads (Amersham) were mixed with an aliquot of membrane in binding buffer (50 mM Tris, 120 mM NaCl, 5 mM KCl, 2 mM CaCl2, 10 mM MgCl2) for 15 minutes with mixing. 50 ul of bead/membrane mixture was then added to each well of a 96 well plate, followed by 50 ul of 4 nM 3H-Vasopressin (American Radiolabeled Chemicals). For total binding measurement 100 ul of binding buffer were added to the respective wells, for non-specific binding 100 ul of 8.4 mM cold vasopressin and for compound testing 100 ul of a serial dilution of each compound in 2% DMSO. The plate was incubated 1 h at room temperature, centrifuged 1 min at 1000 g and counted on a Packard Top-Count. Non-specific binding counts were subtracted from each well and data was normalized to the maximum specific binding set at 100%. To calculate an IC 50 the curve was fitted using a non-linear regression model (XLfit) and the Ki is calculated using the Cheng-Prussoff equation.

T1 sequence (P37288 whole entry): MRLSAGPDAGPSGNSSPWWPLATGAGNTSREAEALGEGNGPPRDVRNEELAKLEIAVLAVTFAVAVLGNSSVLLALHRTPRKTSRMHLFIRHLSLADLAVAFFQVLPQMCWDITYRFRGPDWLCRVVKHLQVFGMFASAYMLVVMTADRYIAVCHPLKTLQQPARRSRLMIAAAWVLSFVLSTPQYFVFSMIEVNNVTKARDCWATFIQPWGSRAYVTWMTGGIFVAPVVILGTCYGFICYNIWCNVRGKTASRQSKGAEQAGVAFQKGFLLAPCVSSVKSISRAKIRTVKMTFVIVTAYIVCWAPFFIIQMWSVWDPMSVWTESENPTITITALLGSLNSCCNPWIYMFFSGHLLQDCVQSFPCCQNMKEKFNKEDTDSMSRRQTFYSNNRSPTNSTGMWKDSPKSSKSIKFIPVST

SMILES | Ki
O=C(CNC(c1ccccc1)c1cccc(C(F)(F)F)c1)N1CCC2(CC1)OCc1ccccc12 (racemic) [Example 12, (RS)-2-Oxo-N-{phenyl[3-(trifluoromethyl)phenyl]methyl}-2-(1′H,3H-spiro[2-benzofuran-1,4′-piperidin]-1′-yl)ethanamine] | 0.0302 µM
O=C(CNC(c1ccccc1)c1cc(Cl)ccc1O)N1CCC2(CC1)OCc1ccccc12 (racemic) [Example 37, (RS)-4-Chloro-2-[{[2-oxo-2-(1′H,3H-spiro[2-benzofuran-1,4′-piperidin]-1′yl)ethyl]amino}(phenyl)methyl]phenol] | 0.0145 µM
CN(CC(=O)N1CCC2(CC1)OCc1ccccc12)C(c1ccccc1)c1ccccc1 [Example 93, N-(Diphenylmethyl)-N-methyl-2-oxo-2-(1′H,3H-spiro[2-benzofuran-1,4′-piperidin]-1′-yl)ethanamine] | 0.0282 µM
O=C(CNC(c1cccc(Cl)c1)c1ncco1)N1CCC2(CC1)OCc1ccccc12 (racemic) [Example 68, (RS)—N-[(3-Chlorophenyl) (1,3-oxazol-2-yl)methyl]-2-oxo-2-(1′H,3H-spiro [2-benzofuran-1,4′-piperidin]-1′-yl)ethanamine] | 0.00851 µM
O=C(CNC(c1ccc(F)cc1)c1cccc(C(F)(F)F)c1)N1CCC2(CC1)OCc1ccccc12 (racemic) [Example 13, (RS)—N-{(4-Fluorophenyl)[3-(trifluoromethyl)phenyl]methyl}-2-oxo-2-(1′H,3H-spiro[2-benzofuran-1,4′-piperidin]-1′-yl)ethanamine] | 0.0295 µM
O=C(CN[C@@H](C(=O)N1CC(O)C1)c1ccccc1)N1CCC2(CC1)OCc1ccccc12 [Example 71, 1-[(2R)-2-{[2-Oxo-2-(1′H,3H-spiro[2-benzofuran-1,4′-piperidin]-1′-yl)ethyl]amino}-2-phenylacetyl]azetidin-3-ol] | 0.0794 µM
Cc1cccc(C(NCC(=O)N2CCC3(CC2)OCc2ccccc23)c2ccccc2)c1 (racemic) [Example 34, (RS)—N-[(3-Methylphenyl)(phenyl)methyl]-2-oxo-2-(1′H,3H-spiro[2-benzofuran-1,4′-piperidin]-1′-yl)ethanamine] | 0.0186 µM
O=C(CN[C@H](c1ccc(Cl)cc1)[C@@H](O)c1ccc(N2CCOCC2)cc1)N1CCC2(CC1)OCc1ccccc12 [Example 46] | 0.024 µM
C[C@](O)(c1ccccn1)[C@H](NCC(=O)N1CCC2(CC1)OCc1ccccc12)c1ccc(Cl)cc1 (racemic) [Example 49, (1RS,2RS)-1-(4-Chlorophenyl)-1-{[2-oxo-2-(1′H,3H-spiro[2-benzofuran-1,4′-piperidin]-1′-yl)ethyl]amino}-2-pyridin-2-yl-propan-2-ol] | 0.0186 µM
O=C(CNC(c1ccccc1)c1ccc(Cl)c(Cl)c1)N1CCC2(CC1)OCc1ccccc12 (racemic) [Example 9, (RS)—N-[(3,4-Dichlorophenyl)(phenyl)methyl]-2-oxo-2-(1′H,3H-spiro[2-benzofuran-1,4′-piperidin]-1′-yl)ethanamine] | 0.0145 µM

More lines, now with the values ahead:

Ki | SMILES
0.0209 µM | O=C(CNC(c1ccccc1)c1ccc(C(F)(F)F)cc1)N1CCC2(CC1)OCc1ccccc12 (racemic) [Example 18, (RS)-2-Oxo-N-{phenyl[4-(trifluoromethyl)phenyl]methyl}-2-(1′H,3H-spiro[2-benzofuran-1,4′-piperidin]-1′-yl)ethanamine]
0.0117 µM | O=C(CNC(c1ccccc1)c1ccccc1)N1CCC2(CC1)OCc1ccccc12 [Example 6, N-(Diphenylmethyl)-2-oxo-2-(1′H,3H-spiro[2-benzofuran-1,4′-piperidin]-1′-yl)ethanamine]
0.0182 µM | O=C(CNC(c1ccccc1)c1ccccn1)N1CCC2(CC1)OCc1ccccc12 (racemic) [Example 27, (RS)-2-Oxo-N-[phenyl(pyridin-2-yl)methyl]-2-(1′H,3H-spiro[2-benzofuran-1,4′-piperidin]-1′-yl)ethanamine]
0.00912 µM | O=C(CNC(c1ccccc1)c1cccs1)N1CCC2(CC1)OCc1ccccc12 (racemic) [Example 20, (RS)-2-Oxo-N-[phenyl(2-thienyl)methyl]-2-(1′H,3H-spiro[2-benzofuran-1,4′-piperidin]-1′-yl)ethanamine]
0.0148 µM | O=C(CNC(c1ccccc1)c1cccc(Cl)c1)N1CCC2(CC1)OCc1ccccc12 (racemic) [Example 8, (RS)—N-[(3-Chlorophenyl)(phenyl)methyl]-2-oxo-2-(1′H,3H-spiro[2-benzofuran-1,4′-piperidin]-1′-yl)ethanamine]
0.0204 µM | O=C(CN[C@@H](c1ccccc1)c1ccc(Cl)cc1)N1CCC2(CC1)OCc1ccccc12 (single isomer, unassigned) [Example 4, N-[(+)-(4-chlorophenyl)(phenyl)methyl]-2-oxo-2-(1′H,3H-spiro[2-benzofuran-1,4′-piperidin]-1′-yl)ethanamine]
0.0158 µM | O=C(CNC(c1ccc(F)cc1)c1cccs1)N1CCC2(CC1)OCc1ccccc12 (racemic) [Example 29, (RS)—N-[(4-Fluorophenyl)(2-thienyl)methyl]-2-oxo-2-(1′H,3H-spiro[2-benzofuran-1,4′-piperidin]-1′-yl)ethanamine]
0.0427 µM | O=C1OC2(CCN(C(=O)CNC(c3ccccc3)c3ccccc3)CC2)c2ccccc21 [Example 92, 1′-[N-(Diphenylmethyl)glycyl]-3H-spiro[2-benzofuran-1,4′-piperidin]-3-one]
0.0263 µM | CC(O)(c1ccncc1)C(NCC(=O)N1CCC2(CC1)OCc1ccccc12)c1ccc(Cl)cc1 (stereo not shown) [Example 52, 1-(4-Chlorophenyl)-1-{[2-oxo-2-(1′H,3H-spiro[2-benzofuran-1,4-piperidin]-1′-yl)ethyl]amino}-2-pyridin-4-ylpropan-2-ol]
0.00912 µM | O=C(CNC(c1ccccc1)c1ccc(Cl)cc1)N1CCC2(CC1)OCc1ccccc12 (racemic) [Example 2, (RS)—N-[(4-Chlorophenyl)(phenyl)methyl]-2-oxo-2-(1′H,3H-spiro[2-benzofuran-1,4′-piperidin]-1′-yl)ethanamine]
0.0234 µM | Cc1n[nH]c(C)c1C(NCC(=O)N1CCC2(CC1)OCc1ccccc12)c1ccccc1 (racemic) [Example 30, (RS)—N-[(3,5-Dimethyl-1H-pyrazol-4-yl)(phenyl)methyl]-2-oxo-2-(1′H,3H-spiro[2-benzofuran-1,4′-piperidin]-1′-yl)ethanamine]
0.0427 µM | O=C(Nc1ccc(Cl)cc1)[C@H](NCC(=O)N1CCC2(CC1)OCc1ccccc12)c1ccccc1 [Example 31, (2R)—N-(4-Chlorophenyl)-2-{[2-oxo-2-(1′H,3H-spiro[2-benzofuran-1,4′-piperidin]-1′-yl)ethyl]amino}-2-phenylacetamide]
